US8163756B2 (priority 2004, dated 2012)

How the values were obtained:
Assay type in all cases: biochemical
B-Raf(V599E) kinase = B-Raf(V599E) kinase (Homo sapiens, UniProt P15056, V600E); test: B-Raf(V599E) kinase assay B1 (construct 1, MEK1 substrate, coupled spectrophotometric)
Method: The test compounds were incubated with the reaction mixtureat 30° C. for 2 h. […] The reaction rate was calculated using the […] time frame. […] IC50 values were calculated from a series of percent inhibition values determined at a range of inhibitor concentrations using software routines as implemented in the GraphPad Prism software package.

Abl kinase = molecular target: T1, Abl kinase (Homo sapiens, UniProt P00519); test: Abl kinase assay A1 (pyruvate kinase/lactate dehydrogenase coupled, spectrophotometric); details: Method A1; for IC50: read-out: Abl Data (IC50)
T1 sequence (P00519 229-512): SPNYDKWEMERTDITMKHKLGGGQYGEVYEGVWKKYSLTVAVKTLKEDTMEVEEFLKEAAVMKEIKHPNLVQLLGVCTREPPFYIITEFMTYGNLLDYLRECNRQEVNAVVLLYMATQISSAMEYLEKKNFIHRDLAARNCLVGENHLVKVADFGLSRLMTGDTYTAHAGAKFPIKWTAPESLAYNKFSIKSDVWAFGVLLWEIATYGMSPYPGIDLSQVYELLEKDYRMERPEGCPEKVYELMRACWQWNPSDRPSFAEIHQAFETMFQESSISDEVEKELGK
Method: IC50 values were calculated from a series of percent inhibition values determined at a range of inhibitor concentrations using software routines as implemented in the GraphPad Prism software package.

[1] = molecular target: phosphorylated p-38-alpha kinase (Homo sapiens, UniProt Q16539); test: P-38 alpha kinase assay P1 (coupled spectrophotometric, 2 h pre-incubation); details: method P1 (2 h pre-incubation); read-out: P-38 Data
phosphorylated p-38-alpha kinase, sequence (Q16539 1-360 isoform Q16539-2): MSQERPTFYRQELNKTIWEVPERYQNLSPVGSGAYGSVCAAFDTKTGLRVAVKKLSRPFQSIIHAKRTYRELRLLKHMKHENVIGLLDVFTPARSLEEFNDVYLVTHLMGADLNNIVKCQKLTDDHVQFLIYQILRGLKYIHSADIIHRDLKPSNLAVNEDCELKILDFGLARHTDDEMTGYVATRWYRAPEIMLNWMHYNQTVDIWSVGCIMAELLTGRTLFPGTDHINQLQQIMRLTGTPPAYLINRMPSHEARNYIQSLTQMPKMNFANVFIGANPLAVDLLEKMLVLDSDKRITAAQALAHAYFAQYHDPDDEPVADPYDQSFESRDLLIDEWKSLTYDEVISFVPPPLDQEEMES

B-Raf(V599E) kinase, sequence (P15056 with tags, fused parts or gaps V600E): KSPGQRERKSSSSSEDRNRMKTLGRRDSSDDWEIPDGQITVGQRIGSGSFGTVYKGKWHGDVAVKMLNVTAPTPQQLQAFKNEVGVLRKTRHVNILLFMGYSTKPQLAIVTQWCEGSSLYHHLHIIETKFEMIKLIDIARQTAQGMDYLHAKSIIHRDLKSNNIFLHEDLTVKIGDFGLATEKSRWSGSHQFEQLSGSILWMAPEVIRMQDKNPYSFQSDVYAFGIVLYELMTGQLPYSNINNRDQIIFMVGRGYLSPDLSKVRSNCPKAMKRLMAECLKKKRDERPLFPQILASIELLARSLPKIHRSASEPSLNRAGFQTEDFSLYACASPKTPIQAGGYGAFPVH

Structure (SMILES) | IC50 (B-Raf(V599E) kinase) | IC50 (Abl kinase) | IC50 [1] | inhibition at 10 µM (Abl kinase; @ 10 μM, read-out: Abl Data (percent inhibition))
CC(C)(C)c1cc(NC(=O)Nc2cccc(Cl)c2Cl)n(-c2ccc3c(c2)C(N)CC3)n1 (stereo not drawn) [Example 105, 1-[2-(3-amino-indan-5-yl)-5-t-butyl-2H-pyrazol-3-yl]-3-(2,3-dichlorophenyl)urea] | 12 nM | 240 nM |  | 
CC(C)(C)c1cc(NC(=O)Nc2ccc(F)c(F)c2F)n(-c2cc(CC(N)=O)c3ccccc3c2)n1 [Example 80, 1-(1-(4-(2-amino-2-oxoethyl)naphthalen-2-yl)-3-t-butyl-1H-pyrazol-5-yl)-3-(2,3,4-trifluorophenyl)urea] | 4.5 nM | 79 nM |  | 
CC(C)(C)c1cc(NC(=O)Nc2cc(F)cc(F)c2)n(-c2cc(CO)c3ccccc3c2)n1 [Example 59, 1-(3-t-butyl-1-(4-(hydroxymethyl)naphthalen-2-yl)-1H-pyrazol-5-yl)-3-(3,5-difluorophenyl)urea] | 8.7 nM | 79 nM |  | 
CC(C)(C)c1cc(NC(=O)Nc2cccc(C#N)c2)n(-c2ccc3c(c2)NCC3)n1 [Example 114, 1-(3-t-butyl-1-(indolin-6-yl)-1H-pyrazol-5-yl)-3-(3-cyanophenyl)urea] | 115 nM | 640 nM |  | 
CC(C)(C)c1cc(NC(=O)Nc2cccc(F)c2F)n(-c2ccc3c(c2)CCNC3)n1 [Example 144, 1-(3-t-butyl-1-(1,2,3,4-tetrahydroiso-quinolin-6-yl)-1H-pyrazol-5-yl)-3-(2,3-difluorophenyl)-urea] | 9.6 nM | 200 nM |  | 
CC(C)(C)c1cc(NC(=O)Nc2ccc(F)c(F)c2F)n(-c2ccc3c(c2)CCNC3)n1 [Example 147, 1-(3-t-butyl-1-(1,2,3,4-tetrahydroiso-quinolin-6-yl)-1H-pyrazol-5-yl)-3-(2,3,4-trifluorophenyl)-urea] | 10 nM | 140 nM |  | 
CC(C)(C)c1cc(NC(=O)Nc2cccc(Cl)c2Cl)n(-c2ccc3c(c2)C(O)CC3)n1 (stereo not drawn) [Example 103, 1-[5-t-butyl-2-(3-hydroxy-indan-5-yl)-2H-pyrazol-3-yl]-3-(2,3-dichlorophenyl)urea] | 4.5 nM | 240 nM |  | 
CC(C)(C)c1cc(NC(=O)Nc2cccc(Cl)c2Cl)n(-c2cc(CC(=O)O)c3ccccc3c2)n1 [Example 77, 2-(3-(3-t-butyl-5-(3-(2,3-dichlorophenyl)-ureido)-1H-pyrazol-1-yl)naphthalen-1-yl)acetic acid] | 3.9 nM | 260 nM |  | 
CC(C)(C)c1cc(NC(=O)Nc2cc(F)c(F)cc2F)n(-c2cc(CO)c3ccccc3c2)n1 [Example 64, 1-(3-t-butyl-1-(4-(hydroxymethyl)naphthalen-2-yl)-1H-pyrazol-5-yl)-3-(2,4,5-trifluorophenyl)urea] | 3.3 nM | 63 nM |  | 
CC(C)(C)c1cc(NC(=O)Nc2cc(F)cc(F)c2)n(-c2cc(CC(N)=O)c3ccccc3c2)n1 [Example 83, 1-(1-(4-(2-amino-2-oxoethyl)naphthalen-2-yl)-3-t-butyl-1H-pyrazol-5-yl)-3-(3,5-difluorophenyl)urea] | 8.5 nM | 87 nM |  | 
CC(C)(C)c1cc(NC(=O)Nc2cc(F)c(F)c(F)c2)n(-c2cc(CO)c3ccccc3c2)n1 [Example 66, 1-(3-t-butyl-1-(4-(hydroxymethyl)naphthalen-2-yl)-1H-pyrazol-5-yl)-3-(3,4,5-trifluorophenyl)urea] | 8.5 nM | 71 nM |  | 
CC(C)(C)c1cc(NC(=O)Nc2cccc(Cl)c2Cl)n(-c2cccc(-c3cccnc3)c2)n1 [Example 276, 1-[5-t-butyl-2-(3-pyridin-3-yl-phenyl)-2H-pyrazol-3-yl]-3-(2,3-dichlorophenyl)urea] | 4.9 nM | 2300 nM |  | 
CC(C)(C)c1cc(NC(=O)Nc2cccc(Cl)c2Cl)n(-c2ccc3c(c2)N(S(C)(=O)=O)CC3)n1 [Example 113, 1-(3-t-butyl-1-(1-(methylsulfonyl)indolin-6-yl)-1H-pyrazol-5-yl)-3-(2,3-dichlorophenyl)urea] | 3.3 nM | 190 nM |  | 
CC(=O)N1CCc2cc(-n3nc(C(C)(C)C)cc3NC(=O)Nc3cccc(Cl)c3Cl)ccc21 [Example 107, 1-(1-(1-acetylindolin-5-yl)-3-t-butyl-1H-pyrazol-5-yl)-3-(2,3-dichlorophenyl)urea] | 2.1 nM | 180 nM |  | 
CC(=O)c1cc(-n2nc(C(C)(C)C)cc2NC(=O)Nc2cccc(Cl)c2Cl)cc2ccccc12 [Example 100, 1-(1-(4-acetylnaphthalen-2-yl)-3-t-butyl-1H-pyrazol-5-yl)-3-(2,3-dichlorophenyl)urea] | 6.9 nM | 150 nM | 5 nM | 
CC(C)(C)c1cc(NC(=O)Nc2cc(F)cc(F)c2F)n(-c2cc(CN)c3ccccc3c2)n1 [Example 70, 1-(1-(4-(aminomethyl)naphthalen-2-yl)-3-t-butyl-1H-pyrazol-5-yl)-3-(2,3,5-trifluorophenyl)urea] | 5 nM | 50 nM |  | 

Structure (SMILES) | IC50 (B-Raf(V599E) kinase) | IC50 (Abl kinase) | IC50 [1] | inhibition at 10 µM (Abl kinase; @ 10 μM, read-out: Abl Data (percent inhibition))
CC(C)(C)c1cc(NC(=O)Nc2ccc(Cl)cc2)n(-c2ccc3c(c2)CN(C(=O)NS(C)(=O)=O)CC3)n1 [Example 128, N-(7-{3-t-butyl-5-[3-(4-chloro-phenyl)ureido]pyrazol-1-yl}-3,4-dihydro-1H-isoquinoline-2-carbonyl)methane-sulfonamide] | 67 nM | 7500 nM |  | 
CC(C)(C)c1cc(NC(=O)Nc2cccc(Cl)c2Cl)n(-c2cccc(CC(=O)O)c2)n1 [Example 373, 2-(3-{3-t-butyl-5-[3-(2,3-dichlorophenyl)-ureido]-1H-pyrazol-1-yl}phenyl)acetic acid] | 3.2 nM | 3500 nM |  | 
CC(C)(C)c1cc(NC(=O)Nc2cccc(Cl)c2Cl)n(-c2cccc(CC(=O)NCCO)c2)n1 [Example 37, 1-(3-t-butyl-{1-[3-(2-hydroxyethylamino)-2-oxo-thyl]-phenyl}-1H-pyrazol-5-yl)-3-(2,3-dichlorophenyl)-urea] | 5.7 nM | 1400 nM |  | 
Cc1ccc(NC(=O)Nc2cc(C(C)(C)C)nn2-c2ccc3c(c2)CCNC3)cc1Nc1ncccn1 [Example 142, 1-(3-t-butyl-1-(1,2,3,4-tetrahydro-isoquinolin-6-yl)-1H-pyrazol-5-yl)-3-(4-methyl-3-(pyrimidin-2-ylamino)phenyl)-urea] | 35 nM | 170 nM |  | 
COc1cccc(-n2nc(C(C)(C)C)cc2NC(=O)Nc2cc(Cl)cc(Cl)c2)c1 [Example 14, 1-(3-t-butyl-1-(3-methoxyphenyl)-1H-pyrazol-5-yl)-3-(3,5-dichlorophenyl)urea] | 70 nM | 2400 nM |  | 
CC(C)(C)c1cc(NC(=O)Nc2ccc(F)c(F)c2F)n(-c2cc(CO)c3ccccc3c2)n1 [Example 62, 1-(3-t-butyl-1-(4-(hydroxylmethyl)naphthalen-2-yl)-1H-pyrazol-5-yl)-3-(2,3,4-trifluorophenyl)urea] | 3.2 nM | 110 nM |  | 
CCOC(=O)Cc1cc(-n2nc(C(C)(C)C)cc2NC(=O)Nc2cccc(Cl)c2Cl)cc2ccccc12 [Example 76] | 11 nM |  |  | 31%
CC(C)(C)c1cc(NC(=O)Nc2ccc3c(c2)OCO3)n(-c2cccc(C#N)c2)n1 [Example 6, 1-(benzo[d][1,3]dioxol-5-yl)-3-(3-t-butyl-1-(3-cyanophenyl)-1H-pyrazol-5-yl)urea] | 180 nM | 3000 nM |  | 
CC(C)(C)c1cc(NC(=O)Nc2cccc(Cl)c2Cl)n(-c2ccc3c(c2)C(=O)CC3)n1 [Example 102, 1-[5-t-butyl-2-(3-oxo-indan-5-yl)-2H-pyrazol-3-yl]-3-(2,3-dichlorophenyl)urea] | 2.5 nM | 110 nM |  | 
CC(C)(C)c1cc(NC(=O)Nc2cccc(Cl)c2Cl)n(-c2cc(CCN)c3ccccc3c2)n1 [Example 193, 1-(1-(4-(2-aminoethyl)naphthalen-2-yl)-3-t-butyl-1H-pyrazol-5-yl)-3-(2,3-dichlorophenyl)urea] | 2.6 nM | 81 nM |  | 
CC(C)(C)c1cc(NC(=O)Nc2ccc(F)cc2F)n(-c2ccc3c(c2)CCNC3)n1 [Example 145, 1-(3-t-butyl-1-(1,2,3,4-tetrahydroiso-quinolin-6-yl)-1H-pyrazol-5-yl)-3-(2,4-difluorophenyl)-urea] | 13 nM | 410 nM |  | 
CC(C)(C)c1cc(NC(=O)Nc2cccc(C#N)c2)n(-c2ccc3c(c2)CCN3)n1 [Example 111, 1-(3-t-butyl-1-(indolin-5-yl)-1H-pyrazol-5-yl)-3-(3-cyanophenyl)urea] | 97 nM | 620 nM |  | 
CC(C)(C)c1cc(NC(=O)Nc2cccc(Br)c2)n(-c2cccc(CN)c2)n1 [Example 41, 1-(1-[3-(aminomethyl)phenyl]-3-t-butyl-1H-pyrazol-5-yl)-3-(3-bromophenyl)urea] | 89 nM | 3700 nM |  | 
CC(C)(C)c1cc(NC(=O)Nc2ccc(F)cc2F)n(-c2cc(CC(N)=O)c3ccccc3c2)n1 [Example 82, 1-(1-(4-(2-amino-2-oxoethyl)naphthalen-2-yl)-3-t-butyl-1H-pyrazol-5-yl)-3-(2,4-difluorophenyl)urea] | 5.9 nM | 360 nM |  | 
CC(C)(C)c1cc(NC(=O)Nc2ccc(F)cc2)n(-c2cc(CC(N)=O)c3ccccc3c2)n1 [Example 84, 1-(1-(4-(2-amino-2-oxoethyl)naphthalen-2-yl)-3-t-butyl-1H-pyrazol-5-yl)-3-(4-fluorophenyl)urea] | 11 nM | 390 nM |  | 
